Literature values, collected in PubChem BioAssay AID1259409 (Chemical Carcinogenesis Research Information System (CCRIS), 2018).

Test system: rodent chemically induced tumor inhibition, incidence and multiplicity
Test: CCRIS tumor inhibitor studies
Details: Carcinogen: DIETHYLNITROSAMINE, 55-18-5, N-METHYLNITROSOUREA, 684-93-5, 1,2-DIMETHYLHYDRAZINE, 540-73-8, N-BUTYL-N-(4-HYDROXYB, Carcinogen: DIETHYLNITROSAMINE, 55-18-5, N-METHYLNITROSOUREA, 684-93-5, 1,2-DIMETHYLHYDRAZINE, 540-73-8, N-BUTYL-N-(4-HYDROXYB, Dose [Inhibitor]: 0, Route [Inhibitor]: ORAL, Species: RAT, Strain/Sex: F344/MALE, Dose [Carcinogen]: 100 MG/KG DEN ONCE, 20 MG/KG MNU 4 TIMES, 40 MG/KG DMH 4 TIMES, 0.05% BBN IN DRINKING WATER FOR 2 WK, 0.1% DHPN IN D, Dose [Carcinogen]: 100 MG/KG DEN ONCE, 20 MG/KG MNU 4 TIMES, 40 MG/KG DMH 4 TIMES, 0.05% BBN IN DRINKING WATER FOR 2 WK, 0.1% DHPN IN D, Promoter: NONE USED

O=c1c(O)c(-c2ccc(O)c(O)c2)oc2cc(O)cc(O)c12
tumour outcome (control, treated, inhibition, significance) (1% IN DIET FOR 4 WK BEGINNING 1 DAY PRIOR TO CARCINOGEN TREATMENT (STUDY DURATION: 36 WK), Target Tissue: Type of Lesion: LUNG: ADENOMA): 6/14 (43%), 2/13 (15%), 65%, not significant | tumour outcome (control, treated, inhibition, significance) (1% IN DIET FOR 4 WK BEGINNING 1 DAY PRIOR TO CARCINOGEN TREATMENT (STUDY DURATION: 36 WK), Target Tissue: Type of Lesion: SMALL INTESTINE: ADENOMA): 6/14 (43%), 1/13 (8%), 81%, p<0.05 | tumour outcome (control, treated, inhibition, significance) (1% IN DIET FOR 4 WK BEGINNING 1 DAY PRIOR TO CARCINOGEN TREATMENT (STUDY DURATION: 36 WK), Target Tissue: Type of Lesion: SMALL INTESTINE: CARCINOMA): 5/14 (36%), 2/13 (15%), 58%, not significant | tumour outcome (control, treated, inhibition, significance) (1% IN DIET FOR 32 WK BEGINNING POST CARCINOGEN TREATMENT (STUDY DURATION: 36 WK), Target Tissue: Type of Lesion: KIDNEY: ADENOMA): 4/14 (29%), 3/12 (25%), 14%, not significant | tumour outcome (control, treated, inhibition, significance) (1% IN DIET FOR 32 WK BEGINNING POST CARCINOGEN TREATMENT (STUDY DURATION: 36 WK), Target Tissue: Type of Lesion: KIDNEY: NEPHROBLASTOMA): 7/14 (50%), 4/12 (33%), 34%, not significant | tumour outcome (control, treated, inhibition, significance) (1% IN DIET FOR 32 WK BEGINNING POST CARCINOGEN TREATMENT (STUDY DURATION: 36 WK), Target Tissue: Type of Lesion: LARGE INTESTINE: CARCINOMA): 3/14 (21%), 4/12 (33%), -57%, not significant
